# Tests used:
# TrkA = TrkA (Homo sapiens, UniProt P04629); conditions: transfected HEK293 cells
# Method: (§1) To determine whether catecholamines bind TrkB directly, an in vitro binding assay was conducted with purified ECD (extracellular domain) and ICD (intracellular domain) proteins from Trk receptors and ^3H-catecholamines. […] To determine whether the binding by catecholamines to TrkB receptor caused dimerization, GST-TrkB was co-transfected into HEK293 cells with HA-TrkB, followed by BDNF or monoamines treatment for 15 minutes.
# TrkC = TrkC (Homo sapiens, UniProt Q16288); conditions: transfected HEK293 cells
# Sequence of TrkC (Q16288 32-839, species assumed): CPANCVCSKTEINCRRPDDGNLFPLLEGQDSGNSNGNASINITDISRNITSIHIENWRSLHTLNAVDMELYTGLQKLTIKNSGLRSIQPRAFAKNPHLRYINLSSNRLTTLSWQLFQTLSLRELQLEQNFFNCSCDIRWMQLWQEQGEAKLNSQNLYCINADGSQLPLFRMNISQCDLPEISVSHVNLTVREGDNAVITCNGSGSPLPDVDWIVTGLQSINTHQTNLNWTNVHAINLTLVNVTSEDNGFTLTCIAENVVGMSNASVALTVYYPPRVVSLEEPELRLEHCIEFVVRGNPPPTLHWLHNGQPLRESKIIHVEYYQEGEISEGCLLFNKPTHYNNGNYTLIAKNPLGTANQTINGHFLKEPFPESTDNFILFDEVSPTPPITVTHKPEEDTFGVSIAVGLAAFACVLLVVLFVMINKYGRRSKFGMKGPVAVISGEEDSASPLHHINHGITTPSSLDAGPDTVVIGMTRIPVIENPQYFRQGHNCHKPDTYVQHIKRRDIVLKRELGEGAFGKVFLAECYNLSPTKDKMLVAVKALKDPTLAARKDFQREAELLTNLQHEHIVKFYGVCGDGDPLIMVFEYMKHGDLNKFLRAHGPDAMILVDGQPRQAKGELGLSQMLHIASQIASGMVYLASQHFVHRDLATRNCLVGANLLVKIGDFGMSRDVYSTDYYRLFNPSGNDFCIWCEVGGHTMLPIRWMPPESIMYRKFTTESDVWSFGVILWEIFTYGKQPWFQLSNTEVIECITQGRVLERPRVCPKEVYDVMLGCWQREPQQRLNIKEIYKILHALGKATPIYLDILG
# Method: as §1
# TrkB [1] = target: T1, TrkB (Homo sapiens, UniProt Q16620); experiment: Tyrosine phosphorylation of TrkB in transfected HEK293 cells; type: cell-based; design: expressed in transfected cells; host or cells: HEK293
# T1 sequence (Q16620 32-822, species assumed): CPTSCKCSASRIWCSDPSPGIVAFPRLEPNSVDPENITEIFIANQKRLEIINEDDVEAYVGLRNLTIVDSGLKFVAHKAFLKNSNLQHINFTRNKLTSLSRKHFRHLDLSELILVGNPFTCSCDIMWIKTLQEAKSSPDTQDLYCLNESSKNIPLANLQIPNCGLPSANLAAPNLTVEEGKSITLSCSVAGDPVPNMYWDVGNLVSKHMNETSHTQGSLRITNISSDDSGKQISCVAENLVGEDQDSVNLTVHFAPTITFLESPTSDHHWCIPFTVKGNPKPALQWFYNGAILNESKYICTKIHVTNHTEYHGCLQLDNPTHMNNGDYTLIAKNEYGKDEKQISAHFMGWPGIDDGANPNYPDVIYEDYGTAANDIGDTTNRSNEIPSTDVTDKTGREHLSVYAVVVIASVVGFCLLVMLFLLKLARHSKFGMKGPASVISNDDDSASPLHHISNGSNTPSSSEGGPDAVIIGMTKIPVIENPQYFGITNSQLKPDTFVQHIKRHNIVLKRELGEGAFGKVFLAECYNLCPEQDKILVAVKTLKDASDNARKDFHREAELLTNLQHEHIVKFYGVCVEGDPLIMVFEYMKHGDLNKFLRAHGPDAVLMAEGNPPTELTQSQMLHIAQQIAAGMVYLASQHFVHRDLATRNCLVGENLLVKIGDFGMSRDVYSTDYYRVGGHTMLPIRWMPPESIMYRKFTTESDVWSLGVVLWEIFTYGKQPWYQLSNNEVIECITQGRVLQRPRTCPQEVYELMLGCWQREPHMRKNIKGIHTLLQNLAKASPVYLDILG
# Method: as §1
# TrkB [2] = target: T2, TrkB (Mus musculus, UniProt P15209); type: cell-based, mice; conditions: compared to wild-type control neurons
# T2 construct: endogenous in cells; host or cells: primary cortical neurons from BDNF-null, TrkB +/- cross, TrkC knockout and NET -/- mice
# T2 sequence (P15209 32-821): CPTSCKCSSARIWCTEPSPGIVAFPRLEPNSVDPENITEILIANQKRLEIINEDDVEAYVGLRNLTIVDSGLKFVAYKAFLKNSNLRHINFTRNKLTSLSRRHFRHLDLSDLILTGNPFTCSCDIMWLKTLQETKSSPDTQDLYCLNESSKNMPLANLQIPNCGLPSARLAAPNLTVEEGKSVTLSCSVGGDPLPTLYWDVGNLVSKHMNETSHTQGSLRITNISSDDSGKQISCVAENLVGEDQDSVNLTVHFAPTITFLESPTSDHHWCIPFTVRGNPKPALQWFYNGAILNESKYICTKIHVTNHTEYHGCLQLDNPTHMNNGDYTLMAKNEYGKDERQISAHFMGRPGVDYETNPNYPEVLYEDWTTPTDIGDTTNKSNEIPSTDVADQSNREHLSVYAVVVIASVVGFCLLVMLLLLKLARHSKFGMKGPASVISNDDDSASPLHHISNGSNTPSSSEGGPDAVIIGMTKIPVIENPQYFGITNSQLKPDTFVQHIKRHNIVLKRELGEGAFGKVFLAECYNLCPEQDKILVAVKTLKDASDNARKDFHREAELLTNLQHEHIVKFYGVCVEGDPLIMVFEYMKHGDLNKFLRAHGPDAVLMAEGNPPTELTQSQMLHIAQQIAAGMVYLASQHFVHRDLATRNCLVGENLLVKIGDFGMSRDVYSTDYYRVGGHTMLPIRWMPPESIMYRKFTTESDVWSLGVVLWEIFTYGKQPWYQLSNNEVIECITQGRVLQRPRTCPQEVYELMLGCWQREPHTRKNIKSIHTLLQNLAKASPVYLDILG
# Method: (§2) It was then determined whether catecholamines could activate TrkB in neurons cultured from mice carrying a null mutation of NET.
# [3] = target: T3, TrkB intracellular domain (ICD) (Homo sapiens, UniProt Q16620); experiment: In vitro binding assay with purified TrkB ICD and 3H-ligands (Scatchard plot); conditions: for Kd: purified protein, 25° C., 30 minutes, read-out: TrkB binding constants (Scatchard plot)
# T3 construct: purified ECD (extracellular domain) and ICD (intracellular domain) proteins from Trk receptors
# T3 sequence (Q16620 455-822 limits assumed): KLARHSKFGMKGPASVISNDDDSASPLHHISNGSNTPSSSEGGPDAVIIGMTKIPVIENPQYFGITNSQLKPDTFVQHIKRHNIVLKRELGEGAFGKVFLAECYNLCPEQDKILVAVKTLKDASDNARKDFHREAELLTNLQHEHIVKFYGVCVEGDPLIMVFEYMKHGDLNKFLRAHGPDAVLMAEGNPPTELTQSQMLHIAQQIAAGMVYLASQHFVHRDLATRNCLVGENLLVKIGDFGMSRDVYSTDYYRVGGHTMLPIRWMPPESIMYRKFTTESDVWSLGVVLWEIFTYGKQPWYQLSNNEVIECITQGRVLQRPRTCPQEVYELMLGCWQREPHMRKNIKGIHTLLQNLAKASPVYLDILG
# Method: (§3) Purified TrkA and TrkB ECD or ICD proteins were incubated with different ^3H-catecholamines at 25° C. for 30 minutes in 1 ml of binding buffer (50 mM Tris-HCl, pH 7.4, 100 mM NaCl, 5 nM ^3H-catecholamines (32000 cpm)). After the incubation, the reaction mixture was loaded on a Whatman glass-fiber filter (GF-B) (Whatman Inc.; Piscataway, N.J.). The mixture was washed with 3×5 ml washing buffer (50 mM Tris-HCl, pH 7.4). The dried filter paper was put into a small vial and subjected to liquid scintillation counter analysis. The value of the dissociate constant and the number of sites were obtained from Scatchard plots by using the equation r/[L]free =n/Kd−r/Kd, where r is the ratio of the concentration of bound ligand to the total protein concentration and n is the number of binding sites.
# as §1
# TrkB [4] = target: T1, TrkB; experiment: Activation of transfected TrkB in HEK293 cells with or without DAT or NET; type: cell-based; design: expressed in transfected cells; host or cells: HEK293; conditions: NET transfected HEK293 cells
# TrkB [5] = target: T4, TrkB (Rattus norvegicus, UniProt Q63604); experiment: TrkB activation in cortical neurons after pretreatment with antibodies, receptor antagonists, transporter inhibitors or EDTA (anti-p-TrkB-Y-816 immunoblot); type: cell-based
# T4 construct: endogenous in cells; host or cells: primary rat cortical and hippocampal neurons
# T4 sequence (Q63604 32-821): as the sequence (P15209 32-821) above, with T3M, S9T, A10T, V32I, R63K, S84G, M153T, L185I, S394T, S770N counted along it
# Excerpt: (§4) Both antidepressants and exercise increase hippocampal BDNF mRNA expression through enhanced 5-HT and/or NE neurotransmission (Siuciak et al., Pharmacol. Biochem. Behav., 56:131-137, 1997; Dias et al., Neuropharmacology, 45:553-563, 2003; Ivy et al., Pharmacol. Biochem. Behav., 75:81-88, 2003; Garza et al., Pharmacol. Biochem. Behav., 77:209-220, 2004). If catecholamines activated TrkB signaling indirectly by promoting BDNF generation, then scavenging BDNF with its specific antibody would be expected to diminish catecholamines-mediated activation of TrkB. Cultured cortical neurons were pretreated with BDNF-IgG for 30 minutes followed by exposure to BDNF (10 ng/ml) or catecholamines (100 nM) for 15 minutes. […] It was then determined whether catecholamines could activate TrkB in neurons cultured from mice carrying a null mutation of BDNF.
# To further investigate the specificity of catecholamines in inducing TrkB activation, cortical neurons were pretreated with control IgG or norepinephrine IgG, a rabbit polyclonal antibody for norepinephrine, followed by catecholamines.
# as §2
# (§5) The cell lysates were analyzed by immunoblotting with anti-p-TrkB-Y-816.
# as §5
# A group of primary cortical neurons were pretreated with 1 mM EDTA, and another group of primary cortical neurons were not pretreated. Both groups of primary cortical neurons were then treated with either Zn (100 μM) or a catecholamine (100 nM) for 15 minutes. The neuronal cell lysates were analyzed by immunoblotting with anti-p-TrkB-Y-816 antibody.
# [6] = system: TrkB F616A cortical neurons; experiment: Glutamate-provoked apoptosis of TrkB F616A cortical neurons (TUNEL assay); type: cell-based, mice; design: Effect of inhibitor on protective action of norepinephrine: dose or concentration left out as unconfirmed
# Method: Norepinephrine has neuroprotective activity against oxidative stress-induced neuronal apoptosis. To investigate whether this protective action by norepinephrine is mediated through TrkB, apoptosis of TrkB F616A cortical neurons was monitored. Primary cortical neurons were pretreated with inhibitors K252a or 1NMPP1 followed by overnight treatment with 50 mM glutamate.
# [7] = target: T5, TrkB extracellular domain (ECD) (Homo sapiens, UniProt Q16620); experiment: In vitro binding assay with purified TrkB ECD and 3H-ligands; conditions: purified ECD, 3H-ligand
# T5 construct: purified ECD (extracellular domain) and ICD (intracellular domain) proteins from Trk receptors
# T5 sequence (Q16620 32-430 limits assumed): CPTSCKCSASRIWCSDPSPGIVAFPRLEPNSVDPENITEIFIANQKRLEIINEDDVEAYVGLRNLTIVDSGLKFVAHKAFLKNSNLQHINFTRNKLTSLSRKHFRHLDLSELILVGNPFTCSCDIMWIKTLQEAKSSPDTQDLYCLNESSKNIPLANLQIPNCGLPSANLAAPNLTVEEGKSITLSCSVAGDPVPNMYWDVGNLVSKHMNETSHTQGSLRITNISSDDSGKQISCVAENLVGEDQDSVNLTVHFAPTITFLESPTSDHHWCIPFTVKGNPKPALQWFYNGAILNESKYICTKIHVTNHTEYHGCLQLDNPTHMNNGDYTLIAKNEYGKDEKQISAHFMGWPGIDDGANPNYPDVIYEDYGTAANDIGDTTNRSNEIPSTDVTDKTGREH
# Method: as §3, §1
# TrkB [8] = target: T2, TrkB; experiment: TrkB activation in cortical neurons cultured from BDNF-null mice; type: cell-based; conditions: 15 min
# Excerpt: as §4
# TrkB [9] = target: T6, TrkB (Mus musculus, UniProt P15209, F616A); type: in vivo; conditions: 1NMPP1 50 μM; for TrkB tyrosine phosphorylation/activation in mice: L-DOPA 50 mg/kg, DOPS 100 mg/kg
# T6 construct: from tissue; host or cells: mouse brain
# T6 sequence (P15209 32-821 F616A): as the sequence (P15209 32-821) above, with F585A counted along it
# Method: The DOPS concentration was 20 mg/ml, the vitamin C concentration was 2 mg/ml, and the benserazide concentration was 5 mg/ml. The vitamin C prevents oxidation of the DOPS, and the benserazide is a peripheral inhibitor of AADC and restricts the production of NE from DOPS to the brain. The compounds were added to a tube, and 20 μl of 10 M HCl was added to each ml of DOPS solution. The appropriate amount of water was added to the tube, and then HCl was added to achieve the desired volume. For example, to make 1 mL of a DOPS solution, 20 mg DOPS, 2 mg vitamin C, and 5 mg benserazide were added to a tube, followed by 980 μL of water and 20 μL of 10 M HCl. The solution was vortexed until all DOPS was dissolved. The DOPS solution was injected subcutaneously in a volume of 50 μl/g of mouse. The appropriate amount of DOPS solution was pipetted into a clean tube, followed by the amount of 10 M NaOH required to exactly neutralize the HCl. The solution was then shaken. The amount of 10 M NaOH is the weight of the mouse in microliters. For example, for a 20 g mouse, pipet 1 ml of the DOPS solution is pipetted into a tube and 20 μL of 10 M NaOH is added. For a 30 g mouse, 1.5 mL of the DOPS solution is pipetted into a tube and 30 μl of 10 M NaOH is added. Two to four month-old TrkBF616A mice were pretreated with 1NMPP1 in drinking water (50 μM) 1 day before L-DOPA (50 mg/kg) or DOPS (100 mg/kg) intraperitoneal injection. At times of 2 hours and 5 hours after drug administration, the L-DOPA or DOPS-treated mice were sacrificed, respectively. The brain lysates were prepared and analyzed by immunoblotting against anti-phospho-TrkB Y816 and TrkA Y794 antibodies.
# (§6) TrkB F616A mice were pretreated with 1NMPP1 (50 μM) before L-DOPA or DOPS administration.
# mice = experiment: Forced swim test; type: in vivo; conditions: TrkB F616A knockin mice
# Method: Accumulating evidence supports that BDNF plays an essential role in mediating antidepressants' therapeutic effects. Infusion of exogenous BDNF into hippocampus or brain stem has antidepressant-like behavioral effect. A forced swim test is broadly used for screening of potential antidepressant drugs and is widely used to measure antidepressant activity. To explore whether Compound I-11 (ADPP) and Compound I-8 (DDAP) have antidepressant effects like BDNF, forced swim tests were conducted. Adult male mice (2-3 months old, n=8) were randomly submitted, without a pre-swim, to a forced swim test of 6 minutes with immobility recorded in the last 4 minutes. Mice were injected intraperitoneally with saline, Compound I-11 (20 mg/kg), or Compound I-8 (20 mg/kg). The mice were allowed to adapt to the test room for 2 days, and the mice were placed in a clear glass cylinder with a diameter of 16 cm, half-filled with clear water at 24° C.
# To assess whether the behavior responses caused by catecholamine derivatives is mediated by TrkB receptor, TrkB F616A knockin mice were utilized. The mice were subjected to saline or 1NMPP1 inhibitor pretreatment.
# TrkB F616A [10] = target: T7, TrkB F616A (Mus musculus, UniProt P15209); experiment: TrkB phosphorylation in TrkB F616A or TrkA F592A cortical neurons pretreated with K252a or 1NMPP1; type: cell-based, mice; conditions: TrkA F592A neurons
# T7 construct: endogenous in cells; host or cells: primary cortical neurons from TrkB F616A knock-in mice
# T7 sequence (P15209 32-821 F616A): as the sequence (P15209 32-821) above, with F585A counted along it
# Method: as §6
# (§7) On day 7, the primary cortical neurons were pretreated with 100 nM K252a or 1NMPP1 for 30 min, followed by 500 nM ADPP and DDAP. Cell lysates were analyzed by Western blotting.
# TrkB F616A [11] = target: T8, TrkB F616A (Mus musculus, UniProt P15209, F616A); experiment: as above; type: cell-based, mice; conditions: TrkB F616A knock-in cortical neurons
# T8 construct: endogenous in cells; host or cells: primary cortical neurons from TrkB F616A knock-in mice
# T8 sequence (P15209 32-821 F616A): as the sequence (P15209 32-821) above, with F585A counted along it
# Method: as §6, §7
# TrkB F616A knockin mice = experiment: Kainic acid-induced neuronal apoptosis in TrkB F616A knockin mice (immunoblotting and Caspase-3 ELISA); type: in vivo; conditions: 1NMPP1 16.6 ng/kg 2 days before
# Method: To determine whether Compound I-11 (ADPP) and Compound I-8 (DDAP) protect neurons from KA-induced apoptosis, TrkB F616A knockin mice were pretreated with inhibitor 1NMPP1 (16.6 ng/kg) 2 days before the experiment. Compound I-8 (DDAP) or Compound I-11 (ADPP) (50 mg/kg) was orally injected into the mice 2 hours before kainic acid (KA) administration (20 mg/kg). Brain lysates were analyzed by immunoblotting and Caspase-3 ELISA. […] The extent of the protective effect correlates with TrkB activation status by these compounds. Active Caspase-3 ELISA correlated with the immunoblotting results (FIG. 28B, right panel).
# Sequence of TrkA (P04629 33-796, species assumed): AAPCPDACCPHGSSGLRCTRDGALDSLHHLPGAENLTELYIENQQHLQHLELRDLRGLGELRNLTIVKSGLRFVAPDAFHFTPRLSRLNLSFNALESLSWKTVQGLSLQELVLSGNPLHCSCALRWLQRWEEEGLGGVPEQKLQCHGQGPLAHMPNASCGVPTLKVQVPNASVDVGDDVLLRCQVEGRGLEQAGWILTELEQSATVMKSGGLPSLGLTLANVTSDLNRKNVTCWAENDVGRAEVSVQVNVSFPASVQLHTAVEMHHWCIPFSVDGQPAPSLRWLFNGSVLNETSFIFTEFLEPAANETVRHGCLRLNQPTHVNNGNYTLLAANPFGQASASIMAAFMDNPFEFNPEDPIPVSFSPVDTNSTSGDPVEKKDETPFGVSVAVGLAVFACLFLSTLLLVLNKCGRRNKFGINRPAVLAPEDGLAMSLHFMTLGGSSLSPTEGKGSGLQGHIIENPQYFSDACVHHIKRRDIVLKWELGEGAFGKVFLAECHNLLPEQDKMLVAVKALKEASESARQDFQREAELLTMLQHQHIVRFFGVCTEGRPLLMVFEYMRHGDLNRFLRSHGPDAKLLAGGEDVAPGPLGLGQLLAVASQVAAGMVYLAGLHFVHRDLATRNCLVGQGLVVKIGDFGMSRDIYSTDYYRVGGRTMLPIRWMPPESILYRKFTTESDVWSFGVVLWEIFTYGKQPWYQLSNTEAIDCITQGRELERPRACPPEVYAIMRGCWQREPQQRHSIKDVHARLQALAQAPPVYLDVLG
compound,measurement,setting,value
CNC[C@H](O)c1ccc(O)c(O)c1 [epinephrine],Tyrosine phosphorylation of TrkA,TrkA,but not in TrkA
same,Tyrosine phosphorylation of TrkC,TrkC,but not in TrkA or TrkC
same,Tyrosine phosphorylation of TrkB,TrkB [1],elicited tyrosine phosphorylation
same,TrkB activation in NET -/- neurons,TrkB [2],completely blocked
same,Binding to ICD of TrkB receptor,"[3]; purified ICD, 3H-ligand",strongest binding activity
same,Kd,[3],1.1 µM
same,Increase of stimulatory activity by overexpression of NET compared to control cells,TrkB [4],approximately 100 fold
NC[C@H](O)c1ccc(O)c(O)c1 [norepinephrine],Effect of norepinephrine IgG on the agonistic effect of the substance on TrkB activation,"TrkB [5]; IgG 15 min, then 300 nM catecholamines 15 min",selectively inhibited
same,Effect of norepinephrine IgG on the agonistic effect of the substance,TrkB [5]; compared to control IgG,selectively neutralized
same,Glutamate-provoked neuronal cell death,[6]; 50 mM glutamate overnight,robustly suppressed
same,TrkB activation in NET -/- neurons,TrkB [2],completely blocked
same,Kd,[3],98 µM
same,Increase of stimulatory activity by overexpression of NET compared to control cells,TrkB [4],approximately 100 fold
"O=c1cc(-c2ccccc2)oc2c(O)c(O)ccc12 [7,8-dihydroxyflavone]",Effect of BDNF-IgG pretreatment on phosphorylation of TrkB induced by the substance,"TrkB [5]; BDNF-IgG 30 minutes, then BDNF 10 ng/ml or catecholamines 100 nM, 15 minutes",had no effect
same,Binding to ECD of TrkB receptor,[7],selectively bound
same,Activation of TrkB in BDNF-null cortical neurons,TrkB [8],evident activation of TrkB
same,TrkB tyrosine phosphorylation/activation in mice,TrkB [9],provoked evident TrkB activation
CC(C)(C)n1nc(Cc2cccc3ccccc23)c2c(N)ncnc21 [Compound 1NMPP1],Effect of inhibitor on protective action of norepinephrine,[6]; glutamate overnight,abolished
same,"Immobility times, 1NMPP1 versus saline treated control groups",mice,No significant difference
same,Effect of inhibitor on catecholamine-induced TrkB activation,TrkB F616A [10],but not by 1NMPP1
same,Effect of inhibitor on catecholamine-provoked TrkB phosphorylation,TrkB F616A [11],selectively reduced
same,Effect of 1NMPP1 pretreatment on protective effect of Compounds I-8 and I-11,TrkB F616A knockin mice,blocked the protective effect
same,TrkB tyrosine phosphorylation/activation in mice,TrkB [9],had no effect
same,"Effect of 1NMPP1 pretreatment on TrkB activation by 7,8-dihydroxyflavone, L-DOPA and DOPS",TrkB [9]; TrkB F616A mice,markedly diminished TrkB activation
